Assay results published in patent US9187471B2, “Pyrido [4,3-b] indole and pyrido [3,4-b] indole derivatives and methods of use” (Medivation Technologies, Inc., priority 2010, dated 2015).

Tests used:
[1] = molecular target: T1, human recombinant serotonin (5-Hydroxytryptamine) 5-HT7 receptor (Homo sapiens, UniProt P34969); assay: Serotonin 5-HT7 radioligand binding ([3H]LSD); conditions: compound at 0.1 μM; read-out: Inhibition of ligand binding, Serotonin 5-HT7 (percent inhibition of specific binding)
T1 construct: expressed in transfected cells; host or cells: CHO
T1 sequence (P34969 whole entry): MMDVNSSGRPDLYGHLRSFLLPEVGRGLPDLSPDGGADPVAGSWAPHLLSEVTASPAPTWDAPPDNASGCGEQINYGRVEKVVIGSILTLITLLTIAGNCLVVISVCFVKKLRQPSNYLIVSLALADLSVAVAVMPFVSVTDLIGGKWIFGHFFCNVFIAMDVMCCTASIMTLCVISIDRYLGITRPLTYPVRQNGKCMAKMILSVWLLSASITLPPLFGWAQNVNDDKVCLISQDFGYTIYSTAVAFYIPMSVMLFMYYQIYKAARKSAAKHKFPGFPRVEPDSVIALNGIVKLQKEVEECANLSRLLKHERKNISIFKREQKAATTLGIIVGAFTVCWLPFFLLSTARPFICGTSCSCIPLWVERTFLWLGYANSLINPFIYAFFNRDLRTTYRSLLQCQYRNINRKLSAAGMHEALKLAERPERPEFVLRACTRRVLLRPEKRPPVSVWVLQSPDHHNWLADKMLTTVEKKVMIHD
Experimental: Lysergic acid diethylamide (LSD) for 120 min. at 25° C. […] Receptor proteins were filtered and washed, the filters were then counted to determine [^3H]LSD specifically bound.

[2] = molecular target: T2, human recombinant serotonin (5-Hydroxytryptamine) 5-HT6 receptor (Homo sapiens, UniProt P50406); assay: Serotonin 5-HT6 radioligand binding ([3H]LSD); conditions: compound at 0.1 μM; read-out: Inhibition of ligand binding, Serotonin 5-HT6 (percent inhibition of specific binding)
T2 construct: expressed in transfected cells; host or cells: HeLa
T2 sequence (P50406 whole entry): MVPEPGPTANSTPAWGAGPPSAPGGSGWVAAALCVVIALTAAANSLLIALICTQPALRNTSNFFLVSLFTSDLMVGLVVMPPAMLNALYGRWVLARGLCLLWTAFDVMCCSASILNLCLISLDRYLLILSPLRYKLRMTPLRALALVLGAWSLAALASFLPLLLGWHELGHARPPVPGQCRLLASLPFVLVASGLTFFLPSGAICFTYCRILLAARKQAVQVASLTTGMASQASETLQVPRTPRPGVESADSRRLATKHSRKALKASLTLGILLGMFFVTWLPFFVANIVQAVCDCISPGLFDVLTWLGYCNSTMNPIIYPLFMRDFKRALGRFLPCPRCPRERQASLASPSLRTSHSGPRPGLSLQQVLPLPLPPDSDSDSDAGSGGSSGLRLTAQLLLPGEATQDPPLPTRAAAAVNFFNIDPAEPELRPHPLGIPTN
Text: Receptor proteins were filtered and washed, the filters were then counted to determine [3H]LSD specifically bound.

[3] = molecular target: T3, human recombinant dopamine D2L receptor (Homo sapiens, UniProt P14416); assay: Dopamine D2L radioligand binding ([3H]Spiperone); conditions: 0.16 nM [3H]Spiperone; for inhibition at 1 µM: read-out: Dopamine D2L (1 μM), percent inhibition of specific binding, compound at 1 μM
T3 construct: expressed in transfected cells; host or cells: CHO
T3 sequence (P14416 whole entry): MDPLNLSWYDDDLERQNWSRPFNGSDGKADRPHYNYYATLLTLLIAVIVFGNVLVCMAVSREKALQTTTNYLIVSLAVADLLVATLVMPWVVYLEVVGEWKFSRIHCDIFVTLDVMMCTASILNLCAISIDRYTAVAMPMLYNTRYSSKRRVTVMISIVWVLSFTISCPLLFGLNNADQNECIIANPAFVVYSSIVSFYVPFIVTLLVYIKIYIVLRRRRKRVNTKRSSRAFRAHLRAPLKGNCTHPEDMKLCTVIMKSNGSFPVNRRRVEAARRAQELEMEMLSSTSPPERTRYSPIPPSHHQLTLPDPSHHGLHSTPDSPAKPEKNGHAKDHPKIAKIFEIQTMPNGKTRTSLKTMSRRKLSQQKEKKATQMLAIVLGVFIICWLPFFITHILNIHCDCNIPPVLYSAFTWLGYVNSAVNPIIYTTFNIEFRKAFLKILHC
Experimental: Non-specific binding was estimated in the presence of 10 μM Haloperidol. Receptor proteins were filtered and washed, the filters were then counted to determine [^3H]Spiperone specifically bound.

[4] = molecular target: T4, human recombinant histamine H1 receptor (Homo sapiens, UniProt P35367); assay: Histamine H1 radioligand binding ([3H]Pyrilamine); conditions: read-out: Histamine H1 Binding (1 μM), percent inhibition of specific binding; compound at 1 μM; 1.2 nM [3H]Pyrilamine
T4 construct: expressed in transfected cells; host or cells: CHO-K1
T4 sequence (P35367 whole entry): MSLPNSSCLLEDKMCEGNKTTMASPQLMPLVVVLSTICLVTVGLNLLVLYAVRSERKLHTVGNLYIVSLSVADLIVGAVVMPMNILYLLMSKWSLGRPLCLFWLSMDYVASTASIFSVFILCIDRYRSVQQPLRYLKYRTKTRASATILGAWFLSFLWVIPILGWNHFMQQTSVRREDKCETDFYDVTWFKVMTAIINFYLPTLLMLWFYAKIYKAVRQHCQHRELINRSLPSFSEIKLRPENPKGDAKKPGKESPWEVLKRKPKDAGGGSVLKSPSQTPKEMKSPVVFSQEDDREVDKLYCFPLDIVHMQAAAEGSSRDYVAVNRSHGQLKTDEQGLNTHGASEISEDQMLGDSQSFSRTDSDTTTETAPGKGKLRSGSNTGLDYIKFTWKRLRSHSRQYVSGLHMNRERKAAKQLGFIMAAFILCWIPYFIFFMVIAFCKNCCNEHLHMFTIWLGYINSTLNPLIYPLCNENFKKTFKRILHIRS
How it was run: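 Human recombinant H1 receptor expressed in CHO-K1 cells, in 50 mM Tris-HCl pH 7.4 with 2 mM MgCl2, 100 mM NaCl, 250 mM sucrose. Non-specific binding defined with 1 μM pyrilamine; bound [3H]pyrilamine counted after filtration and washing. Values are percent inhibition of specific binding.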

SMILES | inhibition at 0.1 µM [1] [%] | inhibition at 0.1 µM [2] [%] | inhibition at 1 µM [3] [%] | inhibition at 1 µM [4] [%] | inhibition at 0.1 µM ([3]; read-out: Dopamine D2L (0.1 μM), percent inhibition of specific binding, compound at 0.1 μM) [%]
Cc1ccc2c(c1)c1c(n2-c2ccc(-c3c(C)noc3C)cn2)CCN(C)C1 [Compound No. 137, 4-(6-(2,8-dimethyl-3,4-dihydro-1H-pyrido[4,3-b]indol-5(2H)-yl)pyridin-3-yl)-3,5-dimethylisoxazole] | 40 | 2 | 6 | 3 | –
Cc1ccc2c(c1)c1c(n2-c2cccc(-c3ccc(C)nc3)c2)CCN(C)C1 [Compound 60, 2,8-dimethyl-5-(3-(6-methylpyridin-3-yl)phenyl)-2,3,4,5-tetrahydro-1H-pyrido[4,3-b]indole] | 41 | 3 | 24 | 32 | –
Cc1ccc2c(c1)c1c(n2-c2cccc(-c3ccc(F)cc3)c2)CCN(C)C1 [Compound 61, 5-(4′-fluorobiphenyl-3-yl)-2,8-dimethyl-2,3,4,5-tetrahydro-1H-pyrido[4,3-b]indole] | 48 | 18 | 36 | 42 | –
Cc1ccc2c(c1)c1c(n2-c2ccc3nc(C)ccc3c2)CCN(C)C1 [Compound No. 157, 2,8-dimethyl-5-(2-methyl-quinolin-6-yl)-2,3,4,5-tetrahydro-1H-pyrido[4,3-b]indole] | 16 | 22 | – | -17 | -6
Cc1ccc2c(c1)c1c(n2-c2cscc2-c2c(C)noc2C)CCN(C)C1 [Compound 62] | 48 | 28 | 16 | 27 | –
CC(=O)Nc1ccc(-c2cscc2-n2c3c(c4cc(C)ccc42)CN(C)CC3)cn1 [Compound 56] | 70 | 16 | 10 | 10 | –
CC(=O)Nc1ccc(-c2ccccc2-n2c3c(c4cc(C)ccc42)CN(C)CC3)cn1 [Compound No. 83, N-(5-(2-(2,8-dimethyl-3,4-dihydro-1H-pyrido[4,3-b]indol-5(2H)-yl)phenyl)pyridin-2-yl)acetamide] | 15 | 3 | 15 | 22 | –
Cc1ccc2c(c1)c1c(n2-c2cccc(-c3ccc(F)nc3)c2)CCN(C)C1 [Compound 44, 5-(3-(6-fluoropyridin-3-yl)phenyl)-2,8-dimethyl-2,3,4,5-tetrahydro-1H-pyrido[4,3-b]indole] | 40 | 21 | 23 | 41 | –
Cc1ccc2c(c1)c1c(n2-c2cscc2-c2ccc(F)nc2)CCN(C)C1 [Compound 35] | 93 | 21 | 17 | 3 | –
Cc1ccc2c(c1)c1c(n2-c2ccccc2-c2ccnn2C)CCN(C)C1 [Compound 32] | 55 | 5 | 10 | 22 | –
CNC(=O)c1ccc(-c2ccccc2-n2c3c(c4cc(C)ccc42)CN(C)CC3)cc1 [Compound No. 72, 2′-(2,8-dimethyl-3,4-dihydro-1H-pyrido[4,3-b]indol-5(2H)-yl)-N-methylbiphenyl-4-carboxamide] | 30 | 3 | 16 | 18 | –
Cc1ccc2c(c1)c1c(n2-c2cccc(-c3ccc4c(ccn4C)c3)c2)CCN(C)C1 [Compound 53, 2,8-dimethyl-5-(3-(1-methyl-1H-indol-5-yl)phenyl)-2,3,4,5-tetrahydro-1H-pyrido[4,3-b]indole] | 4 | 11 | 13 | 18 | –
Cc1ccc2c(c1)c1c(n2-c2ccc(-c3cccc4[nH]ncc34)cn2)CCN(C)C1 [Compound No. 147, 5-(5-(1H-indazol-4-yl)pyridin-2-yl)-2,8-dimethyl-2,3,4,5-tetrahydro-1H-pyrido[4,3-b]indole] | 14 | 15 | 33 | 8 | –
Cc1cc(C)c2c(c1)c1c(n2-c2cccc(-c3ccncc3)c2)CCN(C)C1 [Compound 57, 2,6,8-trimethyl-5-(3-(pyridin-4-yl)phenyl)-2,3,4,5-tetrahydro-1H-pyrido[4,3-b]indole] | 39 | 15 | 31 | 45 | –
Cc1ccc2c(c1)c1c(n2-c2cccc(-c3cnc(N(C)C)nc3)c2)CCN(C)C1 [Compound 42, 5-(3-(2,8-dimethyl-3,4-dihydro-1H-pyrido[4,3-b]indol-5(2H)-yl)phenyl)-N,N-dimethylpyrimidin-2-amine] | 31 | 17 | 17 | 0 | –
Cc1ccc2c(c1)c1c(n2-c2ccc(-c3cncc4ccccc34)cn2)CCN(C)C1 [Compound No. 135, 5-(5-(isoquinolin-4-yl)pyridin-2-yl)-2,8-dimethyl-2,3,4,5-tetrahydro-1H-pyrido[4,3-b]indole] | 22 | 6 | 12 | 10 | –
Cc1ccc2c(c1)c1c(n2-c2ccc(-c3ccc(F)cc3)cn2)CCN(C)C1 [Compound No. 140, 5-(5-(4-fluorophenyl)pyridin-2-yl)-2,8-dimethyl-2,3,4,5-tetrahydro-1H-pyrido[4,3-b]indole] | 41 | 41 | -4 | 10 | –
Cc1ccc2c(c1)c1c(n2-c2cscc2-c2cnn(C)c2)CCN(C)C1 [Compound 30] | 94 | 33 | 4 | 23 | –
Cc1ccc2c(c1)c1c(n2-c2cccc(-c3cncc4ccccc34)c2)CCN(C)C1 [Compound No. 67, 5-(3-(isoquinolin-4-yl)phenyl)-2,8-dimethyl-2,3,4,5-tetrahydro-1H-pyrido[4,3-b]indole] | 28 | 29 | 61 | 32 | –
CNC(=O)c1ccc(-c2ccccc2-n2c3c(c4cc(C)ccc42)CN(C)CC3)cn1 [Compound No. 71, 5-(2-(2,8-dimethyl-3,4-dihydro-1H-pyrido[4,3-b]indol-5(2H)-yl)phenyl)-N-methylpicolinamide] | 27 | -7 | 10 | 18 | –
Cc1ccc2c(c1)c1c(n2-c2cscc2-c2cnc(N(C)C)nc2)CCN(C)C1 [Compound 40] | 49 | 19 | 7 | 15 | –
Cc1csc(-c2cccc(-n3c4c(c5cc(C)ccc53)CN(C)CC4)c2)c1 [Compound No. 63, 2,8-dimethyl-5-(3-(4-methylthiophen-2-yl)phenyl)-2,3,4,5-tetrahydro-1H-pyrido[4,3-b]indole] | 25 | 5 | 19 | 31 | –
Cc1ccc2c(c1)c1c(n2-c2cccc(-c3cnn(C)c3)c2)CCN(C)C1 [Compound 46, 2,8-dimethyl-5-(3-(1-methyl-1H-pyrazol-4-yl)phenyl)-2,3,4,5-tetrahydro-1H-pyrido[4,3-b]indole] | 51 | 14 | 20 | 19 | –
Cc1ccc2c(c1)c1c(n2-c2ccc(-c3cccc4ccccc34)cn2)CCN(C)C1 [Compound No. 141, 2,8-dimethyl-5-(5-(naphthalen-1-yl)pyridin-2-yl)-2,3,4,5-tetrahydro-1H-pyrido[4,3-b]indole] | 33 | 0 | 15 | 11 | –
CC(=O)Nc1ccc(-c2ccc(-n3c4c(c5cc(C)ccc53)CN(C)CC4)nc2)cn1 [Compound No. 139, N-(6′-(2,8-dimethyl-3,4-dihydro-1H-pyrido[4,3-b]indol-5(2H)-yl)-3,3′-bipyridin-6-yl)acetamide] | 13 | -1 | 16 | 4 | –
Cc1ccc2c(c1)c1c(n2-c2ccccc2-c2c(C)noc2C)CCN(C)C1 [Compound No. 82, 4-(2-(2,8-dimethyl-3,4-dihydro-1H-pyrido[4,3-b]indol-5(2H)-yl)phenyl)-3,5-dimethylisoxazole] | 24 | 14 | 9 | 18 | –
Cc1ccc2c(c1)c1c(n2-c2cscc2-c2cccc3[nH]ncc23)CCN(C)C1 [Compound 41] | 96 | 36 | 24 | 28 | –
